We go through 2 compounds from EPA's ToxValDB 9.5 (doi:10.2903/j.efsa.2013.3131).

Where only a bound is given, the exact number is not on record here.

One data set concerns Oryctolagus sp. The following applies: reproduction developmental; body weight.
The test system of another data set is Rattus norvegicus. The following applies: for LD50: acute, oral, mortality.
The subject of the next data set is Neomysis kadiakensis. As to conditions: acute; duration: 96 hours; mortality.
The next data set concerns Apis mellifera. As to conditions: acute, mortality.
For the next data set, the system named is Landoltia sp. The following applies: chronic/long-term; duration: 7 days; biomass.
For a further data set, the system named is Oncorhynchus mykiss. As to conditions: acute; duration: 96 hours; mortality.
A further data set has as its system Pimephales promelas. The following applies: chronic/long-term; duration: 34 days; other.
Another data set has as its system Bibionidae. As to conditions: chronic/long-term; other.
The subject of a further data set is Daphnia magna. As to conditions: chronic/long-term; duration: 21 days; reproduction.
A further data set concerns Pleurozium sp. The following applies: acute; duration: 96 hours; biomass.

For the compound `CS(=O)(=O)c1ccc(C(=O)C2C(=O)C(O)CC(O)C2=O)c(Cl)c1COCC(F)(F)F` (configuration not stated), the no observed adverse effect level (NOAEL) in the data set with Oryctolagus sp. turned out to be 1 mg/kg-day; with Rattus norvegicus (subchronic, duration: 90 days), 12.7 mg/kg-day. In addition, in the data set on Rattus norvegicus, the LD50 is over 2000 mg/kg-day.
As for `CS(=O)(=O)c1ccc(C(=O)C2C(=O)CCCC2=O)c(Cl)c1COCC(F)(F)F` [Tembotrione], the NOEC in the data set with Neomysis kadiakensis was determined as 0.046 mg/L; in the data set with Landoltia sp., 0.0032 mg/L; in the data set on Tagia sp. (chronic/long-term, duration: 28 days, reproduction), 1.25 mg/kg; in the data set with Oncorhynchus mykiss, 100 mg/L; with Pimephales promelas, 0.604 mg/L; with Bibionidae it was 2 mg/L. Further, the NOEC was 5 mg/L in the data set on Daphnia magna, 22.2 mg/kg-day with Colinus virginianus (reproduction developmental) and 0.2 mg/L with Pleurozium sp.. For the same compound, the LD50 with Apis mellifera (dermal) was over 100 µg/piece; in the data set with Apis mellifera (oral, unspecified), over 92.8 µg/piece; with Rattus norvegicus it was over 2000 mg/kg-day; with Colinus virginianus (acute, oral, mortality) it was over 2250 mg/kg-day. The NOAEL came out at 1 mg/kg-day with Oryctolagus sp.; 0.8 mg/kg-day in the data set with Rattus norvegicus (chronic, clinical signs); 0.04 mg/kg-day in the data set with Rattus norvegicus (chronic, duration: 2 years, F, ophthalmoscopic examination); 0.07 mg/kg-day with Rattus norvegicus (subchronic, duration: 90 days, ophthalmoscopic examination). In addition, the LC50 with Tagia sp. (acute, duration: 14 days, mortality) is 1000 mg/kg; in the data set with Colinus virginianus (acute, oral, diet, mortality) it was over 1790 mg/kg-day.

For orientation: NOAEL means the highest dose or exposure tested at which no adverse effect was seen.
